Experimental data reported in patent publication US8952157B2, “Apoptosis-inducing agents for the treatment of cancer and immune and autoimmune diseases” (AbbVie Inc., priority 2008, dated 2015).

The molecules below were run against GST-Bcl-2 (Homo sapiens (Human), UniProt P10415) (assay: Time Resolved-Fluorescence Resonance Energy Transfer (TR-FRET) Bcl-2 binding assay). Details: GST-Bcl-2 1 nM, F-Bak peptide probe 100 nM, Tb-anti-GST antibody 1 nM; Ki by Wang's equation.
Outline: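 Competition TR-FRET: GST-Bcl-2 with fluorescent Bak peptide probe and Tb-anti-GST antibody, compounds serially diluted from 50 μM (2× start, 10% DMSO).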

Chain of GST-Bcl-2 (P10415 whole entry): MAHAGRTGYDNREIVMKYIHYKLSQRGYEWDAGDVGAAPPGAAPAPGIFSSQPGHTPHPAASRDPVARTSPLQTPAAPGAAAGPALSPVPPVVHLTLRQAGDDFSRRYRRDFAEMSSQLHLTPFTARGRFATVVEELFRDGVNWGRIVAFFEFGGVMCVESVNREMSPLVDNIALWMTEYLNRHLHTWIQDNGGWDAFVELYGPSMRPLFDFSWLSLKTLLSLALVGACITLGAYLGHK

**Q.** Which Ki does the source give for `CN(C)CCCc1c[nH]c2ccc(Oc3cc(N4CCN(Cc5ccccc5-c5ccc(Cl)cc5)CC4)ccc3C(=O)NS(=O)(=O)c3ccc(NCC4CCOCC4)c([N+](=O)[O-])c3)cc12` [Example 106, 4-(4-((4′-chloro-1,1′-biphenyl-2-yl)methyl)piperazin-1-yl)-2-((3-(3-(dimethylamino)propyl)-1H-indol-5-yl)oxy)-N-((3-nitro-4-((tetrahydro-2H-pyran-4-ylmethyl)amino)phenyl)sulfonyl)benzamide] here?
**A.** The Ki was 215 nM.

**Q.** How did the Ki turn out when `CN(C)CCCNc1ccc(S(=O)(=O)NC(=O)c2ccc(N3CCN(Cc4ccccc4-c4ccc(Cl)cc4)CC3)cc2Oc2cccc(CO)c2)cc1[N+](=O)[O-]` [Example 107, 4-(4-((4′-chloro-1,1′-biphenyl-2-yl)methyl)piperazin-1-yl)-N-((4-((3-(dimethylamino)propyl)amino)-3-nitrophenyl)sulfonyl)-2-(3-(hydroxymethyl)phenoxy)benzamide] was run?
**A.** The Ki was 0.331 nM.

**Q.** With `CC1(C)CCC(CN2CCN(c3ccc(C(=O)NS(=O)(=O)c4ccc(NCC5(N)CCOCC5)c([N+](=O)[O-])c4)c(Oc4cccc(Cl)c4)c3)CC2)=C(c2ccc(Cl)cc2)C1` [Example 109, N-[(4-{[(4-aminotetrahydro-2H-pyran-4-yl)methyl]amino}-3-nitrophenyl)sulfonyl]-2-(3-chlorophenoxy)-4-(4-{[2-(4-chlorophenyl)-4,4-dimethylcyclohex-1-en-1-yl]methyl}piperazin-1-yl)benzamide] as the molecule, how does the Ki read?
**A.** The Ki was 0.237 nM.

**Q.** Which Ki does the source give for `CC(c1ccccc1-c1ccc(Cl)cc1)N1CCN(c2ccc(C(=O)NS(=O)(=O)c3ccc(NCC4CCOCC4)c([N+](=O)[O-])c3)c(Oc3ccccc3Cl)c2)CC1` (centres unmarked) [Example 110, 4-{4-[1-(4′-chloro-1,1′-biphenyl-2-yl)ethyl]piperazin-1-yl}-2-(2-chlorophenoxy)-N-({3-nitro-4-[(tetrahydro-2H-pyran-4-ylmethyl)amino]phenyl}sulfonyl)benzamide] here?
**A.** The Ki was 0.039 nM.

**Q.** For `CN1CCC(Nc2ccc(C(=O)NS(=O)(=O)c3ccc(N4CCN(Cc5ccccc5-c5ccc(Cl)cc5)CC4)cc3Oc3cc(Cl)cc(Cl)c3)cc2[N+](=O)[O-])CC1` [Example 111, N-{[4-{4-[(4′-chloro-1,1′-biphenyl-2-yl)methyl]piperazin-1-yl}-2-(3,5-dichlorophenoxy)phenyl]sulfonyl}-4-[(1-methylpiperidin-4-yl)amino]-3-nitrobenzamide], which Ki is on record?
**A.** Its Ki is 17.4 nM.

**Q.** For `CN1CCC(Nc2ccc(S(=O)(=O)NC(=O)c3ccc(N4CCN(CC5=C(c6ccc(Cl)cc6)CC(C)(C)CC5)CC4)cc3Oc3cccc(F)c3)cc2[N+](=O)[O-])CC1` [Example 112, 4-(4-{[2-(4-chlorophenyl)-4,4-dimethylcyclohex-1-en-1-yl]methyl}piperazin-1-yl)-2-(3-fluorophenoxy)-N-({4-[(1-methylpiperidin-4-yl)amino]-3-nitrophenyl}sulfonyl)benzamide], which Ki is on record?
**A.** The Ki was 0.042 nM.

**Q.** Which Ki does the source give for `CC1(C)CCC(CN2CCN(c3ccc(C(=O)NS(=O)(=O)c4ccc(NC5CCN(C6CCOCC6)CC5)c([N+](=O)[O-])c4)c(Oc4cccc(F)c4)c3)CC2)=C(c2ccc(Cl)cc2)C1` [Example 113, 4-(4-{[2-(4-chlorophenyl)-4,4-dimethylcyclohex-1-en-1-yl]methyl}piperazin-1-yl)-2-(3-fluorophenoxy)-N-({3-nitro-4-[(1-tetrahydro-2H-pyran-4-ylpiperidin-4-yl)amino]phenyl}sulfonyl)benzamide] here?
**A.** Its Ki is 0.032 nM.

**Q.** How did the Ki turn out when `CC1(C)CCC(CN2CCN(c3ccc(C(=O)NS(=O)(=O)c4ccc(NC5CCN(C6CCOCC6)CC5)c([N+](=O)[O-])c4)c(Oc4ccccc4Cl)c3)CC2)=C(c2ccc(Cl)cc2)C1` [Example 115, 2-(2-chlorophenoxy)-4-(4-{[2-(4-chlorophenyl)-4,4-dimethylcyclohex-1-en-1-yl]methyl}piperazin-1-yl)-N-({3-nitro-4-[(1-tetrahydro-2H-pyran-4-ylpiperidin-4-yl)amino]phenyl}sulfonyl)benzamide] was run?
**A.** Its Ki is 0.042 nM.

**Q.** For `CC1(C)CCC(CN2CCN(c3ccc(C(=O)NS(=O)(=O)c4ccc(NCCCN5CCOCC5)c([N+](=O)[O-])c4)c(Oc4ccccc4Cl)c3)CC2)=C(c2ccc(Cl)cc2)C1` [Example 116, 2-(2-chlorophenoxy)-4-(4-{[2-(4-chlorophenyl)-4,4-dimethylcyclohex-1-en-1-yl]methyl}piperazin-1-yl)-N-({4-[(3-morpholin-4-ylpropyl)amino]-3-nitrophenyl}sulfonyl)benzamide], which Ki is on record?
**A.** Its Ki is 0.123 nM.

**Q.** How did the Ki turn out when `CC1(C)CCC(CN2CCN(c3ccc(C(=O)NS(=O)(=O)c4ccc(NC5CCN(C6CCCC6)CC5)c([N+](=O)[O-])c4)c(Oc4ccccc4Cl)c3)CC2)=C(c2ccc(Cl)cc2)C1` [Example 117, 2-(2-chlorophenoxy)-4-(4-{[2-(4-chlorophenyl)-4,4-dimethylcyclohex-1-en-1-yl]methyl}piperazin-1-yl)-N-({4-[(1-cyclopentylpiperidin-4-yl)amino]-3-nitrophenyl}sulfonyl)benzamide] was run?
**A.** Its Ki is 0.072 nM.

**Q.** How did the Ki turn out when `CN1CCC(Nc2ccc(S(=O)(=O)NC(=O)c3ccc(N4CCN(CC5=C(c6ccc(Cl)cc6)CC(C)(C)CC5)CC4)cc3Oc3ccc(F)cc3)cc2[N+](=O)[O-])CC1` [Example 118, 4-(4-{[2-(4-chlorophenyl)-4,4-dimethylcyclohex-1-en-1-yl]methyl}piperazin-1-yl)-2-(4-fluorophenoxy)-N-({4-[(1-methylpiperidin-4-yl)amino]-3-nitrophenyl}sulfonyl)benzamide] was run?
**A.** The Ki was 0.151 nM.

**Q.** For `CC1(C)CCC(CN2CCN(c3ccc(C(=O)NS(=O)(=O)c4ccc(NC5CCN(C6CC6)CC5)c([N+](=O)[O-])c4)c(Oc4cccc(Cl)c4)c3)CC2)=C(c2ccc(Cl)cc2)C1` [Example 119, 2-(3-chlorophenoxy)-4-(4-{[2-(4-chlorophenyl)-4,4-dimethylcyclohex-1-en-1-yl]methyl}piperazin-1-yl)-N-({4-[(1-cyclopropylpiperidin-4-yl)amino]-3-nitrophenyl}sulfonyl)benzamide], which Ki is on record?
**A.** The Ki was 0.156 nM.

**Q.** For `CC1(C)CCC(CN2CCN(c3ccc(C(=O)NS(=O)(=O)c4ccc(NCCCN5CCOCC5)c([N+](=O)[O-])c4)c(Oc4ccc(F)cc4Cl)c3)CC2)=C(c2ccc(Cl)cc2)C1` [Example 120, 2-(2-chloro-4-fluorophenoxy)-4-(4-{[2-(4-chlorophenyl)-4,4-dimethylcyclohex-1-en-1-yl]methyl}piperazin-1-yl)-N-({4-[(3-morpholin-4-ylpropyl)amino]-3-nitrophenyl}sulfonyl)benzamide], which Ki is on record?
**A.** The Ki was 0.214 nM.

**Q.** Which Ki does the source give for `CC1(C)CCC(CN2CCN(c3ccc(C(=O)NS(=O)(=O)c4ccc(NC5CCN(C6CC6)CC5)c([N+](=O)[O-])c4)c(Oc4cccc(F)c4F)c3)CC2)=C(c2ccc(Cl)cc2)C1` [Example 121, 4-(4-{[2-(4-chlorophenyl)-4,4-dimethylcyclohex-1-en-1-yl]methyl}piperazin-1-yl)-N-({4-[(1-cyclopropylpiperidin-4-yl)amino]-3-nitrophenyl}sulfonyl)-2-(2,3-difluorophenoxy)benzamide] here?
**A.** Its Ki is 0.081 nM.

**Q.** For `CN1CCC(Nc2ccc(S(=O)(=O)NC(=O)c3ccc(N4CCN(CC5=C(c6ccc(Cl)cc6)CC(C)(C)CC5)CC4)cc3Oc3ccccc3F)cc2[N+](=O)[O-])CC1` [Example 122, 4-(4-{[2-(4-chlorophenyl)-4,4-dimethylcyclohex-1-en-1-yl]methyl}piperazin-1-yl)-2-(2-fluorophenoxy)-N-({4-[(1-methylpiperidin-4-yl)amino]-3-nitrophenyl}sulfonyl)benzamide], which Ki is on record?
**A.** Its Ki is under 0.001 nM.

**Q.** How did the Ki turn out when `CC1(C)CCC(CN2CCN(c3ccc(C(=O)NS(=O)(=O)c4ccc(NC5CCN(C6CC6)CC5)c([N+](=O)[O-])c4)c(Oc4ccccc4F)c3)CC2)=C(c2ccc(Cl)cc2)C1` [Example 123, 4-(4-{[2-(4-chlorophenyl)-4,4-dimethylcyclohex-1-en-1-yl]methyl}piperazin-1-yl)-N-({4-[(1-cyclopropylpiperidin-4-yl)amino]-3-nitrophenyl}sulfonyl)-2-(2-fluorophenoxy)benzamide] was run?
**A.** The Ki was 0.11 nM.

**Q.** How did the Ki turn out when `CC1(C)CCC(CN2CCN(c3ccc(C(=O)NS(=O)(=O)c4ccc(NC5CCN(C6CCOCC6)CC5)c([N+](=O)[O-])c4)c(Oc4ccccc4F)c3)CC2)=C(c2ccc(Cl)cc2)C1` [Example 124, 4-(4-{[2-(4-chlorophenyl)-4,4-dimethylcyclohex-1-en-1-yl]methyl}piperazin-1-yl)-2-(2-fluorophenoxy)-N-({3-nitro-4-[(1-tetrahydro-2H-pyran-4-ylpiperidin-4-yl)amino]phenyl}sulfonyl)benzamide] was run?
**A.** Its Ki is 0.033 nM.

**Q.** How did the Ki turn out when `CC1(C)CCC(CN2CCN(c3ccc(C(=O)NS(=O)(=O)c4ccc(NCCCN5CCOCC5)c([N+](=O)[O-])c4)c(Oc4ccccc4F)c3)CC2)=C(c2ccc(Cl)cc2)C1` [Example 125, 4-(4-{[2-(4-chlorophenyl)-4,4-dimethylcyclohex-1-en-1-yl]methyl}piperazin-1-yl)-2-(2-fluorophenoxy)-N-({4-[(3-morpholin-4-ylpropyl)amino]-3-nitrophenyl}sulfonyl)benzamide] was run?
**A.** The Ki was 0.075 nM.

**Q.** With `CC1(C)CCC(CN2CCN(c3ccc(C(=O)NS(=O)(=O)c4ccc(NCCN5CCOCC5)c([N+](=O)[O-])c4)c(Oc4ccccc4F)c3)CC2)=C(c2ccc(Cl)cc2)C1` [Example 126, 4-(4-{[2-(4-chlorophenyl)-4,4-dimethylcyclohex-1-en-1-yl]methyl}piperazin-1-yl)-2-(2-fluorophenoxy)-N-({4-[(2-morpholin-4-ylethyl)amino]-3-nitrophenyl}sulfonyl)benzamide] as the molecule, how does the Ki read?
**A.** The Ki was 0.068 nM.

**Q.** How did the Ki turn out when `CC1(C)CCC(CN2CCN(c3ccc(C(=O)NS(=O)(=O)c4ccc(NC5CCN(C6CCOCC6)CC5)c([N+](=O)[O-])c4)c(Oc4cccc(Cl)c4)c3)CC2)=C(c2ccc(Cl)cc2)C1` [Example 127, 2-(3-chlorophenoxy)-4-(4-{[2-(4-chlorophenyl)-4,4-dimethylcyclohex-1-en-1-yl]methyl}piperazin-1-yl)-N-({3-nitro-4-[(1-tetrahydro-2H-pyran-4-ylpiperidin-4-yl)amino]phenyl}sulfonyl)benzamide] was run?
**A.** Its Ki is 0.03 nM.
